System: 439559-082-T-J2-PDC complex spheroid growth
Experiment: Anticancer human tumor 439559-082-T-J2-PDC patient-derived colon adenocarcinoma cell line growth inhibition [Asc]
Conditions: for IC50: curve of first compound; for viability, T/C: stronger effect = lower value
Procedure, shortened: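 Complex spheroids combining tumor cells with HUVEC endothelial cells and human MSCs, at 37 degrees C, 5% CO2; agents tested alone or combined, half-log dilutions from at or near clinical Cmax, or 10 microM if Cmax unknown.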
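Note: spheroids exposed to agents for 7 days starting day 3 after seeding.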
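Throughout, for viability, T/C: percent of DMSO vehicle control viability with 100% = vehicle.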

O=C(c1cc(Cc2n[nH]c(=O)c3ccccc23)ccc1F)N1CCN(C(=O)C2CC2)CC1 + CNC(C)C(=O)NC1CN(S(=O)(=O)c2cccc(S(=O)(=O)N3CCC4CCC(C(=O)NC(c5ccccc5)c5ccccc5)N4C(=O)C(NC(=O)C(C)NC)C3)c2)CCC2CCC(C(=O)NC(c3ccccc3)c3ccccc3)N2C1=O
IC50 (second compound 0.00316 µM): 0.333 µM | IC50 (second compound 0.01 µM): > 10 µM | IC50 (second compound 0.0316 µM): > 10 µM | IC50 (second compound 0.1 µM): > 10 µM | IC50 (second compound 0.316 µM): > 10 µM | IC50 (second compound 1 µM): > 10 µM | viability, T/C (second compound 0.00316 µM, first compound 0.0316 µM): 54.7% | viability, T/C (second compound 0.00316 µM, first compound 0.1 µM): 47.2% | viability, T/C (second compound 0.00316 µM, first compound 0.316 µM): 49.1% | viability, T/C (second compound 0.00316 µM, first compound 1 µM): 49.9% | viability, T/C (second compound 0.00316 µM, first compound 3.16 µM): 40.7% | viability, T/C (second compound 0.00316 µM, first compound 10 µM): 28.4% | viability, T/C (second compound 0.01 µM, first compound 0.0316 µM): 94.2% | viability, T/C (second compound 0.01 µM, first compound 0.1 µM): 86.3% | viability, T/C (second compound 0.01 µM, first compound 0.316 µM): 93.2% | viability, T/C (second compound 0.01 µM, first compound 1 µM): 96% | viability, T/C (second compound 0.01 µM, first compound 3.16 µM): 113% | viability, T/C (second compound 0.01 µM, first compound 10 µM): 104% | viability, T/C (second compound 0.0316 µM, first compound 0.0316 µM): 103% | viability, T/C (second compound 0.0316 µM, first compound 0.1 µM): 96.2% | viability, T/C (second compound 0.0316 µM, first compound 0.316 µM): 108% | viability, T/C (second compound 0.0316 µM, first compound 1 µM): 99.6% | viability, T/C (second compound 0.0316 µM, first compound 3.16 µM): 101% | viability, T/C (second compound 0.0316 µM, first compound 10 µM): 89.8% | viability, T/C (second compound 0.1 µM, first compound 0.0316 µM): 99.8% | viability, T/C (second compound 0.1 µM, first compound 0.1 µM): 101% | viability, T/C (second compound 0.1 µM, first compound 0.316 µM): 99.2% | viability, T/C (second compound 0.1 µM, first compound 1 µM): 96.5% | viability, T/C (second compound 0.1 µM, first compound 3.16 µM): 99.2% | viability, T/C (second compound 0.1 µM, first compound 10 µM): 102% | viability, T/C (second compound 0.316 µM, first compound 0.0316 µM): 105% | viability, T/C (second compound 0.316 µM, first compound 0.1 µM): 103% | viability, T/C (second compound 0.316 µM, first compound 0.316 µM): 102% | viability, T/C (second compound 0.316 µM, first compound 1 µM): 94.8% | viability, T/C (second compound 0.316 µM, first compound 3.16 µM): 99% | viability, T/C (second compound 0.316 µM, first compound 10 µM): 91.1% | viability, T/C (second compound 1 µM, first compound 0.0316 µM): 81.9% | viability, T/C (second compound 1 µM, first compound 0.1 µM): 78.3% | viability, T/C (second compound 1 µM, first compound 0.316 µM): 93.5% | viability, T/C (second compound 1 µM, first compound 1 µM): 85.1% | viability, T/C (second compound 1 µM, first compound 3.16 µM): 95.7% | viability, T/C (second compound 1 µM, first compound 10 µM): 65.4%
